Legend:
MAO-A = biological target: T1, MAO-A (Homo sapiens, UniProt P21397); experiment: In vitro MAO-A inhibition assay (fluorometric); format: biochemical; details: for inhibition at 1000 µM: 10^–3 M; for inhibition at 100 µM: 10^–4 M
T1 sequence (P21397 1-527): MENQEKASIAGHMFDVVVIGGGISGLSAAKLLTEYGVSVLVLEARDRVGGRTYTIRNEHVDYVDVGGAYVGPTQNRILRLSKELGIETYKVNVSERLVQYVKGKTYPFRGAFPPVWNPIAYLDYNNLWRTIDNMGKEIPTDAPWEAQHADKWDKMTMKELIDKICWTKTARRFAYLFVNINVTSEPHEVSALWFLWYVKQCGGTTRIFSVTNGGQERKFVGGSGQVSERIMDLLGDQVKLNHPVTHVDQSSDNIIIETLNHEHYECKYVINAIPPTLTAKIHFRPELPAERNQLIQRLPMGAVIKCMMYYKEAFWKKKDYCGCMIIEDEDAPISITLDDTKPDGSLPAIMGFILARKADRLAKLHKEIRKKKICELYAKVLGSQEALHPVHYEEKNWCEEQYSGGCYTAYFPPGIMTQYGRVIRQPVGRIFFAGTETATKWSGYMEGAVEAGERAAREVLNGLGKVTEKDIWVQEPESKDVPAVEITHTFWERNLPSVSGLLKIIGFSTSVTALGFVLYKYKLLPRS

Cytotoxicity test (MTT) = format: cell-based; details: NIH/3T3 mouse embryonic fibroblast cells (ATCC CRL-1658), NIH/3T3 mouse fibroblast healthy cell line
Procedure: The NIH/3T3 cells were incubated according to the manufacturer’s recommendations. In 96-well plates, NIH/3T3 cells were seeded at a density of 1 × 10^4 cells per well. The MTT test was conducted in line with the previously mentioned standards.[19],[22],[23],[28],[30]

BChE = BChE (Homo sapiens, UniProt P06276); experiment: biochemical; details: for inhibition at 1000 µM: 10^–3 M; for inhibition at 100 µM: 10^–4 M
BChE, sequence (P06276 29-602): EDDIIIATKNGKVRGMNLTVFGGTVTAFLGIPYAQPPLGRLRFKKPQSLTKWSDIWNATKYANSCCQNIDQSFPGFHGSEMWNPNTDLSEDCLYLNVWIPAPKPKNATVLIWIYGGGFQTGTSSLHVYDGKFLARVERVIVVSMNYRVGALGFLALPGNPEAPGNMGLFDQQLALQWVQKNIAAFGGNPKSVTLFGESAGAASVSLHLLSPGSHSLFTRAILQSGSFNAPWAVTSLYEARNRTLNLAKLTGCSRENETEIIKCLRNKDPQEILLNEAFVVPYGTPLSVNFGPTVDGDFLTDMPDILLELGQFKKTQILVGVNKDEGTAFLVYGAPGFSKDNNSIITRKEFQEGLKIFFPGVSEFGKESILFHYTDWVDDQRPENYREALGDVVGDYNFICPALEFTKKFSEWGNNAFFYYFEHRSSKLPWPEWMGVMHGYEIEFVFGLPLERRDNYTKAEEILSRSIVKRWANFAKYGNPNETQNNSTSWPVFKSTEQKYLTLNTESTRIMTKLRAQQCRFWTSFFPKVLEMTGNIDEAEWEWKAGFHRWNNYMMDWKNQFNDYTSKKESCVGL
Procedure: (§1) According to the modified Ellman approach outlined in our team’s earlier work, the AChE and BChE inhibitory activities of the obtained compounds were evaluated.[18]−[21]

AChE = AChE (Homo sapiens, UniProt P22303); experiment: biochemical; details: for inhibition at 1000 µM: 10^–3 M; for inhibition at 100 µM: 10^–4 M; for inhibition at 10 µM: 10^–5 M; for inhibition at 1 µM: 10^–6 M; for inhibition at 0.1 µM: 10^–7 M; for inhibition at 0.01 µM: 10^–8 M; for inhibition at 0.001 µM: 10^–9 M
AChE, sequence (P22303 32-614): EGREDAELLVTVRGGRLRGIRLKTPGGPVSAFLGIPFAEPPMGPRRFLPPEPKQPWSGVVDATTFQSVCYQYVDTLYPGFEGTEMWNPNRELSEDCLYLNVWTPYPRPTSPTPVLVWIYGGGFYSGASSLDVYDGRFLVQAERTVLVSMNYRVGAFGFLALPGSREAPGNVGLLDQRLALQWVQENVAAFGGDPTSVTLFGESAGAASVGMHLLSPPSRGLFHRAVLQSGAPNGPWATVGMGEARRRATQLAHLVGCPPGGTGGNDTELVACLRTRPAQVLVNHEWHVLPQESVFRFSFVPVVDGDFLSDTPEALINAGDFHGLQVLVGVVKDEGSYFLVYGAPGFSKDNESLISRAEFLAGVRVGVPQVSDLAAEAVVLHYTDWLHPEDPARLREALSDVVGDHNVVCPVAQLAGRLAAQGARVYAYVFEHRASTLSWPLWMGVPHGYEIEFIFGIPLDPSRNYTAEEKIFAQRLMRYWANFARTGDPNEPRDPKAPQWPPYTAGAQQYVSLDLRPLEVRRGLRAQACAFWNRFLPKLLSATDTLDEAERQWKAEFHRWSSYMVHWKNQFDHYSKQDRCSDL
Procedure: as §1

MAO-B = biological target: T2, MAO-B (Homo sapiens, UniProt P27338); experiment: In vitro MAO-B inhibition assay (fluorometric); format: biochemical; details: for inhibition at 1000 µM: 10^–3 M; for inhibition at 100 µM: 10^–4 M
T2 sequence (P27338 1-520): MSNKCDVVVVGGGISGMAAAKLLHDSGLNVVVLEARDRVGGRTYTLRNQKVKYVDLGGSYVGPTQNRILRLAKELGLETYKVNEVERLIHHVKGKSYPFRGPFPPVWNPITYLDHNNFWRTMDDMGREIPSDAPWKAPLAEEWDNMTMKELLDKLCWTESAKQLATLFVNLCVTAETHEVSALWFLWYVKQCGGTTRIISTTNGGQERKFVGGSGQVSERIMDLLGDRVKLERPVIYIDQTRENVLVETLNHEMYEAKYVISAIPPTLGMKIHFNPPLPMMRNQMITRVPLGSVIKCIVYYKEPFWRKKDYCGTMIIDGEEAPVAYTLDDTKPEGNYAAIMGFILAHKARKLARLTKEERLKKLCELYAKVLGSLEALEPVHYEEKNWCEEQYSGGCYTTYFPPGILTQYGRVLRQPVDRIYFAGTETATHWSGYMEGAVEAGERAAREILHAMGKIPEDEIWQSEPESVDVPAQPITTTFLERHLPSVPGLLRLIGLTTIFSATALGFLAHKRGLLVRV

[1] = DPPH free-radical scavenging activity assay; details: for IC50: serial dilution 10^–3–10^–9 M, read-out: IC50 on DPPH antioxidant activity
Procedure: This approach is based on evaluating the free-radical scavenging abilities of the stable 1,1-diphenyl-2-picrylhydrazyl (DPPH) radical. To create the DPHH solution, 9.86 mg of DPPH was weighed and diluted to 25 mL with methanol. The test wells were then filled with 100 μL of the DPPH solution and 100 μL of the test solutions. Only 200 μL of methanol was used for the blank reading, while the control reading required the usage of 100 μL each of methanol and the DPPH solution. Following incubation, a spectrophotometric measurement at 517 nm was carried out.[26],[27]

Beta Amyloid 1–42 (Aβ42) = biological target: T3, Beta Amyloid 1–42 (Aβ42) (Homo sapiens, UniProt P05067); experiment: Beta Amyloid 1–42 (Aβ42) inhibitor screening assay; format: biochemical; details: for inhibition at 100 µM: 10^–4 M
T3 construct: The Beta Amyloid 1–42 (Aβ42) Ligand Screening Assay kit; purchased BioVision, Milpitas, CA
T3 sequence (P05067 672-713 limits assumed): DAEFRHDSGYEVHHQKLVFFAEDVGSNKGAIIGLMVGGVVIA
Text: The Beta Amyloid 1–42 (Aβ42) Ligand Screening Assay kit (BioVision, Milpitas, CA) technique based on the fluorometric approach served as the basis for the experimental process.[21],[28],[29]

[2] = read-out: % β-amyloid plaque inhibition

In the case of `COc1ccc2c(c1)C/C(=C\c1ccc(NC(=O)CN3CCN(CCCO)CC3)cc1)C2=O` [D19], the inhibition at 1000 µM (MAO-A) is reported as 60.9 ± 1.86%, the inhibition at 100 µM (MAO-A) is reported as 25.3 ± 0.632% and the IC50 (Cytotoxicity test (MTT)) is reported as 10500 ± 517 nM. For the same compound, the inhibition at 1000 µM (BChE) was 83.5 ± 1.37%, the inhibition at 100 µM (BChE) was 32.5 ± 0.337% and the IC50 (AChE) was 32.4 ± 1.2 nM. For the same compound, the inhibition at 1000 µM (AChE) was 95.2 ± 1.65%, the inhibition at 100 µM (AChE) was 92.7 ± 1.25% and the inhibition at 10 µM (AChE) was 89.2 ± 1.08%. The inhibition at 1 µM (AChE) was 82.1 ± 0.988%, the inhibition at 0.1 µM (AChE) was 70.7 ± 1.07% and the inhibition at 0.01 µM (AChE) was 33.6 ± 0.624%. It also gave an inhibition at 0.001 µM (AChE) of 20.6 ± 0.596%, an inhibition at 1000 µM (MAO-B) of 90.2 ± 1.46% and an inhibition at 100 µM (MAO-B) of 43.2 ± 0.877%. The “% DPPH free-radical scavenging activity” value ([1]; concentration not stated in the sentence (Figure 6)) was no less than 90% and the IC50 [1] was 362 ± 15 nM.
Work on `COc1ccc2c(c1)C/C(=C\c1ccc(NC(=O)CN3CCN(CCN(C)C)CC3)cc1)C2=O` [D22] yielded an inhibition at 1000 µM (MAO-A) of 76.9 ± 0.232%, an inhibition at 100 µM (MAO-A) of 37.5 ± 0.411% and an IC50 (Cytotoxicity test (MTT)) of 32500 ± 523 nM. The inhibition at 1000 µM (BChE) was 99.5 ± 1.23%, the inhibition at 100 µM (BChE) was 39.5 ± 0.97% and the IC50 (AChE) was 52.7 ± 1.6 nM. It also gave an inhibition at 1000 µM (AChE) of 91.9 ± 1.47%, an inhibition at 100 µM (AChE) of 86.6 ± 1.57% and an inhibition at 10 µM (AChE) of 79 ± 1.17%. For the same compound, the inhibition at 1 µM (AChE) was 70.4 ± 1.07%, the inhibition at 0.1 µM (AChE) was 63.4 ± 0.988% and the inhibition at 0.01 µM (AChE) was 43 ± 0.633%. For the same compound, the inhibition at 0.001 µM (AChE) was 18.8 ± 0.521%, the inhibition at 1000 µM (MAO-B) was 85.3 ± 0.957% and the inhibition at 100 µM (MAO-B) was 48.6 ± 0.605%. For the same compound, the inhibition at 100 µM (Beta Amyloid 1–42 (Aβ42); [2]) was greater than 50%.
Compound `COc1ccc2c(c1)C(=O)/C(=C/c1ccc(NC(=O)CN3CCN(CCN(C)C)CC3)cc1)C2` [D23] has an inhibition at 1000 µM (MAO-A) of 78.2 ± 0.969%, an inhibition at 100 µM (MAO-A) of 22.9 ± 0.497% and an IC50 (Cytotoxicity test (MTT)) of 2150 ± 127 nM. For the same compound, the inhibition at 1000 µM (BChE) was 99 ± 1.68%, the inhibition at 100 µM (BChE) was 41.5 ± 0.741% and the IC50 (AChE) was 51 ± 1.4 nM. The inhibition at 1000 µM (AChE) was 92.5 ± 1.57%, the inhibition at 100 µM (AChE) was 87.6 ± 1.68% and the inhibition at 10 µM (AChE) was 82.4 ± 1.21%. For the same compound, the inhibition at 1 µM (AChE) was 70.1 ± 1.06%, the inhibition at 0.1 µM (AChE) was 68.9 ± 0.945% and the inhibition at 0.01 µM (AChE) was 35.5 ± 0.518%. For the same compound, the inhibition at 0.001 µM (AChE) was 20.6 ± 0.418%, the inhibition at 1000 µM (MAO-B) was 81.3 ± 1.05% and the inhibition at 100 µM (MAO-B) was 43.2 ± 0.884%. The inhibition at 100 µM (Beta Amyloid 1–42 (Aβ42); [2]) was greater than 50%.
For `COc1cc2c(cc1OC)C(=O)/C(=C/c1ccc(NC(=O)CN3CCN(CCCN(C)C)CC3)cc1)C2` [D27], the inhibition at 1000 µM (MAO-A) was 95.08 ± 0.687%, the inhibition at 100 µM (MAO-A) was 44.4 ± 2.29% and the IC50 (Cytotoxicity test (MTT)) was 10500 ± 467 nM. For the same compound, the inhibition at 1000 µM (BChE) was 94.83 ± 0.731%, the inhibition at 100 µM (BChE) was 35.9 ± 0.444% and the IC50 (AChE) was 130 ± 4.2 nM. It also gave an inhibition at 1000 µM (AChE) of 91.2 ± 1.3%, an inhibition at 100 µM (AChE) of 87.3 ± 1.12% and an inhibition at 10 µM (AChE) of 82.1 ± 1.03%. For the same compound, the inhibition at 1 µM (AChE) was 73.3 ± 0.994%, the inhibition at 0.1 µM (AChE) was 41.2 ± 0.562% and the inhibition at 0.01 µM (AChE) was 31.6 ± 0.389%. For the same compound, the inhibition at 0.001 µM (AChE) was 22.5 ± 0.419%, the inhibition at 1000 µM (MAO-B) was 94.6 ± 1.02% and the inhibition at 100 µM (MAO-B) was 43.1 ± 0.452%. The IC50 [1] was 310 ± 13 nM.
Work on `CCCN(C)CC(=O)Nc1ccc(/C=C2\Cc3cc(OC)c(OC)cc3C2=O)cc1` [D30] yielded an inhibition at 1000 µM (MAO-A) of 74.1 ± 2.09%, an inhibition at 100 µM (MAO-A) of 28.3 ± 1.08% and an IC50 (Cytotoxicity test (MTT)) of 601 ± 14.5 nM. For the same compound, the inhibition at 1000 µM (BChE) was 99.6 ± 2.02%, the inhibition at 100 µM (BChE) was 46.43 ± 0.408% and the IC50 (AChE) was 25.7 ± 0.9 nM. The inhibition at 1000 µM (AChE) was 98.2 ± 1.37%, the inhibition at 100 µM (AChE) was 96.6 ± 1.28% and the inhibition at 10 µM (AChE) was 91.8 ± 1.21%. It also gave an inhibition at 1 µM (AChE) of 88.3 ± 1.1%, an inhibition at 0.1 µM (AChE) of 74.3 ± 1.05% and an inhibition at 0.01 µM (AChE) of 36.6 ± 0.627%. The inhibition at 0.001 µM (AChE) was 16.4 ± 0.421%, the IC50 (MAO-B) was 45.6 ± 1.7 nM and the inhibition at 1000 µM (MAO-B) was 97.5 ± 1.39%. For the same compound, the inhibition at 100 µM (MAO-B) was 90.2 ± 1.47%, the inhibition at 10 µM (MAO-B; 10^–5 M) was 82.5 ± 1.38% and the inhibition at 1 µM (MAO-B; 10^–6 M) was 74.6 ± 1.29%. For the same compound, the inhibition at 0.1 µM (MAO-B; 10^–7 M) was 66 ± 0.966%, the inhibition at 0.01 µM (MAO-B; 10^–8 M) was 38.1 ± 0.458% and the inhibition at 0.001 µM (MAO-B; 10^–9 M) was 19.8 ± 0.632%. The inhibition at 1000 µM (Beta Amyloid 1–42 (Aβ42); 10^–3 M, read-out: % β-amyloid plaque inhibition) was 89.6 ± 1.86%, the inhibition at 100 µM (Beta Amyloid 1–42 (Aβ42); [2]) was 81.5 ± 1.96% and the IC50 (Beta Amyloid 1–42 (Aβ42); read-out: IC50 on β-amyloid plaque aggregation) was 178 ± 7.4 nM. It also gave an IC50 [1] of 246 ± 11 nM.

— paper PMC9774391 (ACS Omega, 2022)
